biological target: T1, human RXFP1 (Homo sapiens, UniProt Q9HBX9); assay: RXFP1 cAMP assay (hRXFP1 HEK293 cAMP assay, HTRF); type: cell-based; conditions: HEK293 cells stably expressing human RXFP1, 30 min at room temperature, read-out: cAMP hRXFP1 HEK293 Assay EC50
T1 construct: expressed in transfected cells
T1 sequence (Q9HBX9 1-757): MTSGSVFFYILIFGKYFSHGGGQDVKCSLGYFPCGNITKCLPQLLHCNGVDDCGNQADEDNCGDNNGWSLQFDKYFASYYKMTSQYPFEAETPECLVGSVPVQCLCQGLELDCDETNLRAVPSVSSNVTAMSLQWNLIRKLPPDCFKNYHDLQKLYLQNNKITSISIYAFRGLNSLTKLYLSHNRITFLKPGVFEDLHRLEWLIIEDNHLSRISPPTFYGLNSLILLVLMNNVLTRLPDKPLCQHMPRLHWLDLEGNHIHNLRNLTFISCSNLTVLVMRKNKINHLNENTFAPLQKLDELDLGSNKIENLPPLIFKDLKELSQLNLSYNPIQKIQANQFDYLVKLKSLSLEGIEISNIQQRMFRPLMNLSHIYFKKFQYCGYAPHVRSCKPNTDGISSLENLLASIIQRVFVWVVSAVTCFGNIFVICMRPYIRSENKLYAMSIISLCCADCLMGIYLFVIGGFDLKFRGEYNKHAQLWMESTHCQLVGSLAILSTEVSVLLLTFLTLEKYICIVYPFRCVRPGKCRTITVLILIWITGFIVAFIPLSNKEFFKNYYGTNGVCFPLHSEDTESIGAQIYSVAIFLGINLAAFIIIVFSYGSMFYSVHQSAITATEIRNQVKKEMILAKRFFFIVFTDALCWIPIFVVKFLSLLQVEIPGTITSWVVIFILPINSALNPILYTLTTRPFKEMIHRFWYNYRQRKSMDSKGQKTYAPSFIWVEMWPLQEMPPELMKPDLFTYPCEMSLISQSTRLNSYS
How it was run: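 HEK293 cells stably expressing human RXFP1 (1500 cells/well) in HBSS/20 mM HEPES/0.05% BSA/0.5 mM IBMX. Compounds were tested at 0.010 nM–50 μM final (2% DMSO) for 30 min at room temperature. cAMP was measured by HTRF and values derived by 4-parameter logistic fit.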

Row | Structure (SMILES) | EC50 [nM]
1 | COc1ccc(C2=NOC(CO)C2)cc1C(=O)N[C@@H]1C2CCC(/C2=C/C2CC2)[C@@H]1C(=O)Nc1ccc(F)c(C(F)(F)F)c1 (stereo partly drawn) [compound 381] | 20
2 | COc1ccc(C2=NO[C@H]3C[C@H](CO)CN23)cc1C(=O)N[C@H]1[C@@H](C(=O)Nc2ccc(F)c(C(F)(F)F)c2)[C@H]2CC[C@@H]1/C2=C\CC(C)C [compound 838] | 4.4
3 | COc1ccc(C2=NOC3CC(CO)CC23)cc1C(=O)NC1C2CCC(C2=CC2CC2)C1C(=O)NCC(C)(C)C (stereo not drawn) [Example 453] | 1.9
4 | COc1ccc(-c2cc(C(O)C(F)(F)F)ccc2F)cc1C(=O)N[C@@H]1C2CCC(/C2=C/C2CC2)[C@@H]1C(=O)Nc1ccc(F)c(C(F)(F)F)c1 (stereo partly drawn) [Example 245] | 3
5 | COc1ccc(-c2cccc3c2CN(C(=O)C2CCC2)C3)cc1C(=O)N[C@@H]1C2CCC(/C2=C/C2CC2)[C@@H]1C(=O)Nc1ccc(F)c(C(F)(F)F)c1 (stereo partly drawn) [compound 872] | 8
6 | COc1ccc(C2=NO[C@@H]3C[C@H](C(F)(F)F)CN23)cc1C(=O)N[C@H]1[C@@H](C(=O)Nc2ccc(F)c(C(F)(F)F)c2)[C@H]2CC[C@@H]1/C2=C\C1CC1 [compound 847] | 2.5
7 | COc1ccc(-c2cc([C@H](C)O)on2)cc1C(=O)N[C@H]1[C@@H](C(=O)Nc2ccc(F)c(C(F)(F)F)c2)[C@H]2CC[C@@H]1/C2=C\C1CC1 [compound 465] | 3.5
8 | COc1cc(F)c(F)cc1C(=O)N[C@@H]1C2CCC(/C2=C/c2ccccn2)[C@@H]1C(=O)Nc1ccc(F)c(C(F)(F)F)c1 (stereo partly drawn) [compound 137] | 480
9 | COc1ccc(C2=NOC(C)(C(=O)O)C2)cc1C(=O)N[C@@H]1C2CCC(/C2=C/C2CC2)[C@@H]1C(=O)Nc1ccc(F)c(C(F)(F)F)c1 (stereo partly drawn) [compound 422] | 55
10 | COCCCOc1c(F)cc(C2=NOC3COCC23)cc1C(=O)N[C@H]1[C@@H](C(=O)Nc2ccc(F)c(C(F)(F)F)c2)[C@H]2CC[C@@H]1/C2=C\C1CC1 (stereo partly drawn) [compound 778] | 1.1
11 | O=C(N[C@H]1[C@@H](C(=O)Nc2ccc(F)c(C(F)(F)F)c2)[C@H]2CC[C@@H]1/C2=C\C1CC1)c1cc(C2=NOC3CC(CO)CC23)ccc1F (single isomer, unassigned) [compound 692] | 789
12 | O=C(N[C@H]1[C@@H](C(=O)Nc2ccc(F)c(C(F)(F)F)c2)[C@H]2CC[C@@H]1/C2=C\C1CC1)c1cc(C2=NOC3CC(CO)CC23)cc(F)c1OCCCF (stereo partly drawn) [compound 784] | 3.4
13 | COc1ccc(C2=NOC3COCC23)cc1C(=O)N[C@H]1[C@@H](C(=O)Nc2ccc(F)c(C(F)(F)F)c2)[C@H]2CC[C@@H]1/C2=C\C1CC1 (stereo partly drawn) [Example 417, (1R,2S,3R,4R,Z)-7-(cyclopropylmethylene)-N-(4-fluoro-3-(trifluoromethyl)phenyl)-3-(2-methoxy-5-(3a,4,6,6a-tetrahydrofuro[3,4-d]isoxazol-3-yl)benzamido)bicyclo[2.2.1]heptane-2-carboxamide] | 172
14 | COc1ccc(-c2cc(C(=O)O)ccc2F)cc1C(=O)N[C@@H]1C2CCC(/C2=C/C2CC2)[C@@H]1C(=O)Oc1cccc(-c2nnnn2C)c1 (stereo partly drawn) [compound 272] | 3830
15 | COC(=O)N1Cc2cccc(-c3ccc(OC)c(C(=O)N[C@@H]4C5CCC(/C5=C/C5CC5)[C@@H]4C(=O)Nc4ccc(F)c(C(F)(F)F)c4)c3)c2C1 (stereo partly drawn) [compound 881] | 3.1
16 | COCC1(CNC(=O)[C@@H]2[C@H](NC(=O)c3cc(C4=NOC5COCC45)ccc3OC)[C@@H]3CC[C@H]2/C3=C/C2CC2)CC1 (stereo partly drawn) [compound 701] | 1090
17 | COC(=O)N1CCC=C(c2ccc(OC)c(C(=O)N[C@@H]3C4CCC(C4=C(C)C)[C@@H]3C(=O)Nc3ccc(F)c(C(F)(F)F)c3)c2)C1 (stereo partly drawn) [Example 134] | 1400
18 | COc1cc(F)c(C2=NOC3COCC23)cc1C(=O)N[C@H]1[C@@H](C(=O)Nc2ccc(F)c(C(F)(F)F)c2)[C@H]2CC[C@@H]1/C2=C\C1CC1 (single isomer, unassigned) [compound 463] | 3.1
19 | COc1ccc(C2=NOC3(CO)CCC23CO)cc1C(=O)N[C@H]1[C@@H](C(=O)Nc2ccc(F)c(C(F)(F)F)c2)[C@H]2CC[C@@H]1/C2=C\C1CC1 (single isomer, unassigned) [Example 461] | 2.6
20 | COc1ccccc1NC(=O)OC(c1ccc(F)c(-c2ccc(OC)c(C(=O)N[C@@H]3C4CCC(/C4=C/C4CC4)[C@@H]3C(=O)Nc3ccc(F)c(C(F)(F)F)c3)c2)c1)C(F)(F)F (stereo partly drawn) [compound 225] | 3

Row | Structure (SMILES) | EC50 [nM]
21 | COc1ccc(-c2cc(C(O)C(=O)O)ccc2F)cc1C(=O)NC1C2CCC(/C2=C/C2CCN(Cc3ccc(Cl)cc3)C2)C1C(=O)Nc1ccc(F)c(C(F)(F)F)c1 (stereo not drawn) [compound 357] | 211
22 | COc1ccc(-c2cccnc2F)cc1C(=O)N[C@H]1[C@@H](C(=O)Nc2ccc(F)c(C(F)(F)F)c2)[C@H]2CC[C@@H]1/C2=C/c1ccccc1 [compound 95] | 420
23 | COc1ccc(C2=NOC3CC(C(N)=O)CC23)cc1C(=O)N[C@H]1[C@@H](C(=O)Nc2ccc(F)c(C(F)(F)F)c2)[C@H]2CC[C@@H]1/C2=C\C1CC1 (single isomer, unassigned) [compound 459] | 2.5
24 | COc1ccc(-c2cc(C(OC(=O)Nc3ccccc3)C(=O)O)ccc2F)cc1C(=O)N[C@H]1[C@@H](C(=O)Nc2ccc(F)c(C(F)(F)F)c2)[C@H]2CC[C@@H]1/C2=C\C1CC1 (stereo partly drawn) [compound 965] | 4.8
25 | COc1ccc(-c2cc(C(=O)O)ccc2F)cc1C(=O)N[C@@H]1C2CCC(/C2=C/C2CC2)[C@@H]1C(=O)N[C@@H](C)c1ccccc1C(F)(F)F (stereo partly drawn) [compound 262] | 139
26 | COC(=O)c1c[nH]c2cc(-c3ccc(OC)c(C(=O)N[C@@H]4C5CCC(/C5=C/C(F)(F)F)[C@@H]4C(=O)Nc4ccc(F)c(C(F)(F)F)c4)c3)ccc12 (stereo partly drawn) [compound 296] | 205
27 | COc1ccc(-c2cc([C@H](OC(=O)NC3CCC3)C(F)(F)F)ccc2F)cc1C(=O)N[C@@H]1C2/C(=C\C(F)(F)F)C(C(O)C2O)[C@@H]1C(=O)Nc1ccc(F)c(C(F)(F)F)c1 (stereo partly drawn) [Example 348] | 1310
28 | COc1ccc(-c2cc(C(COC(=O)NC3CCC3)C(F)(F)F)ccc2F)cc1C(=O)N[C@H]1[C@@H](C(=O)Nc2ccc(F)c(C(F)(F)F)c2)[C@H]2CC[C@@H]1/C2=C\C1CC1 (stereo partly drawn) [compound 878] | 5.1
29 | COc1ccc(-c2cc(C(COC(=O)NC3CCC3)C(F)(F)F)ccc2F)cc1C(=O)N[C@H]1[C@@H](C(=O)Nc2ccc(F)c(C(F)(F)F)c2)[C@H]2CC[C@@H]1/C2=C\C1CCCC1 (stereo partly drawn) [compound 893] | 2.2
30 | CCC(NC(=O)[C@@H]1[C@H](NC(=O)c2cc(C3=NOC4COCC34)ccc2OC)[C@@H]2CC[C@H]1/C2=C/C1CC1)c1ccccc1C (single isomer, unassigned) [compound 656] | 311
31 | COc1ccc(C2CCOCC2)cc1C(=O)NC1C2CCC(/C2=C/C2CCC2)C1C(=O)Nc1ccc(F)c(C(F)(F)F)c1 (stereo not drawn) [compound 369] | 65
32 | COc1ccc(C2=NO[C@@H]3[C@@H](O)CCN23)cc1C(=O)N[C@H]1[C@@H](C(=O)Nc2ccc(F)c(C(F)(F)F)c2)[C@H]2CC[C@@H]1/C2=C\C1CC1 [compound 857] | 5
33 | COc1ccc(F)cc1C(=O)N[C@@H]1C2CCC(C2=C(C)C)[C@@H]1C(=O)Nc1ccc(F)c(C(F)(F)F)c1 (stereo partly drawn) [compound 111] | 860
34 | COc1ccc(-c2cc(C(=O)O)ccc2F)cc1C(=O)N[C@H]1[C@@H](C(=O)Nc2ccc(C)c(C(F)(F)F)c2)[C@H]2CC[C@@H]1/C2=C\C1CC1 [Example 265, 3′-(((1R,2R,3S,4R,Z)-7-(cyclopropylmethylene)-3-((4-methyl-3-(trifluoromethyl)phenyl)carbamoyl)bicyclo[2.2.1]heptan-2-yl)carbamoyl)-6-fluoro-4′-methoxy-[1,1′-biphenyl]-3-carboxylic acid] | 5
35 | COc1ccc(-c2cc(C(NC(=O)C3CCOCC3)C(=O)O)ccc2F)cc1C(=O)N[C@H]1[C@@H](C(=O)N[C@H](C)C2(C)CC2(F)F)[C@H]2CC[C@@H]1/C2=C\C1CC(F)(F)C1 (stereo partly drawn) [compound 971] | 2.8
36 | COc1ccc(-c2cc(C(OC(=O)NC(C)(C)C)C(=O)O)ccc2F)cc1C(=O)N[C@H]1[C@@H](C(=O)Nc2ccc(F)c(C(F)(F)F)c2)[C@H]2CC[C@@H]1/C2=C\C1CCCC1 (stereo partly drawn) [compound 933] | 0.9
37 | O=C(N[C@H]1C(C(=O)Nc2ccc(F)c(C(F)(F)F)c2)[C@H]2CC[C@@H]1/C2=C\C1CC1)c1cc(C2=NOC3COCC23)ccc1OCC(F)F (stereo partly drawn) [compound 785] | 4
38 | COc1c(I)cc(I)cc1C(=O)N[C@@H]1C2CCC(/C2=C/c2ccccc2)[C@@H]1C(=O)Nc1ccc(F)c(C(F)(F)F)c1 (stereo partly drawn) [compound 132] | 220
39 | COc1ccc(C2=NOC3CC(CO)CC23)cc1C(=O)N[C@H]1[C@@H](C(=O)Nc2ccc(F)c(C(F)(F)F)c2)[C@H]2CC[C@@H]1/C2=C\CC1CC(F)(F)C1 (stereo partly drawn) [compound 959] | 6.1
